What was measured:
[1] = Randomised placebo-controlled double-blind study, cognitive part of Hamilton Anxiety Scale (HAM-A; concentration and memory items); format: in vivo
Protocol: (§1) The cognition enhancement properties of deramciclane were studied in a randomised placebo-controlled double-blind study. The subjects were randomly assigned to four parallel groups to receive one tablet twice daily (b.i.d) of a placebo, 5 mg (=10 mg/day), 15 mg (=30 mg/day), or 30 mg (=60 mg/day) deramciclane. The study started with a one-week placebo run-in period, followed by an eight-week placebo-controlled active treatment and a two-week placebo washout period.
(§2) The efficacy of deramciclane on cognition enhancement was studied using the cognitive part of Hamilton Anxiety Scale (HAM-A) which consists of the concentration and memory items. Cognition enhancement was also assessed using Udvalg for Kliniske Undersogelser (UKU) scale.

[2] = Randomised placebo-controlled double-blind study, Udvalg for Kliniske Undersogelser (UKU) scale, concentration difficulties; format: in vivo; conditions: 5, 15, 30 mg b.i.d
Protocol: as §1, §2

Structure (SMILES): CN(C)CCO[C@]1(c2ccccc2)C[C@H]2CC[C@]1(C)C2(C)C [deramciclane, (1R,2S,4R)-(−)-2-phenyl 2-(dimethylaminoethoxy)-1,7,7-trimethyl-bicyclo[2.2.1]heptane]
- HAM-A Intellectual, cognitive: subjects rated Mild, number (%) ([1]; After 8 weeks, 5 mg b.i.d): 20 (47%)
- HAM-A Intellectual, cognitive: subjects rated Moderate, number (%) ([1]; After 8 weeks, 5 mg b.i.d): 6 (14%)
- HAM-A Intellectual, cognitive: subjects rated Not Present, number (%) ([1]; After 8 weeks, 5 mg b.i.d): 15 (35%)
- HAM-A Intellectual, cognitive: subjects rated Severe, number (%) ([1]; After 8 weeks, 5 mg b.i.d): 2 (5%)
- HAM-A Intellectual, cognitive: subjects rated Mild, number (%) ([1]; After 8 weeks, 15 mg b.i.d.): 19 (43%)
- HAM-A Intellectual, cognitive: subjects rated Moderate, number (%) ([1]; After 8 weeks, 15 mg b.i.d.): 3 (7%)
- HAM-A Intellectual, cognitive: subjects rated Not Present, number (%) ([1]; After 8 weeks, 15 mg b.i.d.): 21 (48%)
- HAM-A Intellectual, cognitive: subjects rated Severe, number (%) ([1]; After 8 weeks, 15 mg b.i.d.): 1 (2%)
- HAM-A Intellectual, cognitive: subjects rated Mild, number (%) ([1]; After 8 weeks, 30 mg b.i.d.): 14 (30%)
- HAM-A Intellectual, cognitive: subjects rated Moderate, number (%) ([1]; After 8 weeks, 30 mg b.i.d.): 10 (22%)
- HAM-A Intellectual, cognitive: subjects rated Not Present, number (%) ([1]; After 8 weeks, 30 mg b.i.d.): 22 (48%)
- HAM-A Intellectual, cognitive: subjects rated Severe, number (%) ([1]; After 8 weeks, 30 mg b.i.d.): 0
- HAM-A Intellectual, cognitive: subjects rated Mild, number (%) ([1]; Baseline, 5 mg b.i.d group): 17 (31%)
- HAM-A Intellectual, cognitive: subjects rated Moderate, number (%) ([1]; Baseline, 5 mg b.i.d group): 33 (61%)
- HAM-A Intellectual, cognitive: subjects rated Not Present, number (%) ([1]; Baseline, 5 mg b.i.d group): 3 (6%)
- HAM-A Intellectual, cognitive: subjects rated Severe, number (%) ([1]; Baseline, 5 mg b.i.d group): 1 (2%)
- HAM-A Intellectual, cognitive: subjects rated Mild, number (%) ([1]; Baseline, 15 mg b.i.d. group): 12 (24%)
- HAM-A Intellectual, cognitive: subjects rated Moderate, number (%) ([1]; Baseline, 15 mg b.i.d. group): 35 (69%)
- HAM-A Intellectual, cognitive: subjects rated Not Present, number (%) ([1]; Baseline, 15 mg b.i.d. group): 3 (6%)
- HAM-A Intellectual, cognitive: subjects rated Severe, number (%) ([1]; Baseline, 15 mg b.i.d. group): 1 (2%)
- HAM-A Intellectual, cognitive: subjects rated Mild, number (%) ([1]; Baseline, 30 mg b.i.d. group): 15 (28%)
- HAM-A Intellectual, cognitive: subjects rated Moderate, number (%) ([1]; Baseline, 30 mg b.i.d. group): 28 (53%)
- HAM-A Intellectual, cognitive: subjects rated Not Present, number (%) ([1]; Baseline, 30 mg b.i.d. group): 3 (6%)
- HAM-A Intellectual, cognitive: subjects rated Severe, number (%) ([1]; Baseline, 30 mg b.i.d. group): 7 (13%)
- Effect on cognition measured by the cognitive part of the HAM-A ([1]; eight-week treatment, 5, 15 or 30 mg b.i.d): improved the cognition
- Trend analysis (dose-response relationship), concentration difficulties, UKU-scale [2]: statistically significant positive correlation

— US6335371B1, “Method for inducing cognition enhancement” (Orion Corporation, priority 2000, dated 2002)
